{"source": "patent US11331302B2", "about": "“Transmucosal delivery of tocotrienol” (INVICTUS BIOTECHNOLOGY PTY LTD., priority 2012, dated 2022)", "key": {"[1]": {"biological_target": "T1, alpha-tocopherol transport protein (a-TTP) (Rattus norvegicus, UniProt P41034)", "T1 sequence (P41034 1-278)": "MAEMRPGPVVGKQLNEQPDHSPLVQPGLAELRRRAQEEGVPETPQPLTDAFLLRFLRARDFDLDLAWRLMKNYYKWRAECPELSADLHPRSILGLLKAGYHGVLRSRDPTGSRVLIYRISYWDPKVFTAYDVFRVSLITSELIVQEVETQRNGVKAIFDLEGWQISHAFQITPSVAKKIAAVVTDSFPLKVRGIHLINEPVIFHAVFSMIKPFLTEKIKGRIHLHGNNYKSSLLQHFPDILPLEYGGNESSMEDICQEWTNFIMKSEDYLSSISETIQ", "details": "alpha-tocopherol = 100%; cited from earlier work"}, "[2]": {"details": "in vivo", "method": "FIG. 9: Appearance of blood plasma concentrations using gel and tablet sublingual formulations of a 40 mg dose of tocotrienols. Delta tocotrienol (delta-T3) and gamma tocotrienol (gamma-T3) levels were measured in plasma at time points up to 180 minutes from administration of the gel or tablet (tab) formulation.\nA test was carried out in 2 subjects who administered 40 mg tocotrienols in 2 ml of gel sublingually. Blood samples were collected from a forearm venous catheter before administration and at 15, 60, and 180 minutes after administration."}, "[3]": {"details": "humans; same dose of tocotrienol preparations; cited from earlier work"}, "[4]": {"assay": "Plasma tocotrienol levels after sublingual tablets", "assay_type": "in vivo, human", "details": "4×10 mg tablets sublingually, 2 subjects", "description": "A 220 mg sublingual tablet formulation was prepared containing a dose of 10 mg tocotrienol comprised of the actives: delta-tocotrienol 9 mg, gamma tocotrienol 1 mg; and the following excipients: dextrose, mannitol, marine gelatin, 1-leucine, 1-arginine, pre-gel starch, PEG-200, propylene glycol, talc, silica dioxide, magnesium stearate, carotenoids.\nA test was carried out on 2 subjects who dissolved 4×10 mg tablets sublingually."}, "[5]": {"details": "animal study, estimated; cited from earlier work"}}, "data": [{"molecule": "Cc1c(C)c2c(c(C)c1O)CC[C@@](C)(CCC[C@H](C)CCC[C@H](C)CCCC(C)C)O2", "note": "[alpha-tocopherol]", "values": [{"measurement": "relative affinity towards a-TTP", "setting": "[1]", "result": 100, "unit": "%"}]}, {"molecule": "Cc1cc(O)cc2c1O[C@](C)(CCC[C@H](C)CCC[C@H](C)CCCC(C)C)CC2", "note": "[delta-tocopherol]", "values": [{"measurement": "relative affinity towards a-TTP", "setting": "[1]", "result": 2, "unit": "%"}]}, {"molecule": "CC(C)=CCC/C(C)=C/CC/C(C)=C/CC[C@]1(C)CCc2cc(O)cc(C)c2O1", "note": "[delta tocotrienol]", "values": [{"measurement": "ratio of delta to gamma tocotrienol levels in plasma", "setting": "[2]", "result": "9:1"}]}, {"molecule": "alpha-tocotrienol", "values": [{"measurement": "relative affinity towards a-TTP", "setting": "[1]", "result": 12, "unit": "%"}, {"measurement": "plasma concentration, fold higher than that of gamma-tocotrienol", "setting": "[3]", "result": 2, "unit": "fold"}, {"measurement": "plasma concentration, times higher than delta-tocotrienol", "setting": "[3]", "result": "~10", "unit": "times"}]}, {"molecule": "CC(C)=CCC/C(C)=C/CC/C(C)=C/CC[C@]1(C)CCc2cc(O)c(C)c(C)c2O1", "note": "[gamma tocotrienol]", "values": [{"measurement": "plasma level", "setting": "[4]; 20 minute point", "result": 800, "unit": "nM"}, {"measurement": "plasma level", "setting": "[4]; 1 h", "result": 400, "unit": "nM"}, {"measurement": "plasma level", "setting": "[4]; 2 h", "result": 190, "unit": "nM"}, {"measurement": "plasma level", "setting": "[4]; 3 h", "result": 70, "unit": "nM"}, {"measurement": "relative affinity towards a-TTP", "setting": "[1]", "result": 9, "unit": "%"}]}, {"molecule": "tocopherol", "values": [{"measurement": "oral bioavailability", "setting": "[5]", "result": 36, "unit": "%"}]}]}
